Measured values published in patent US5306710A, “Method for treating endotoxin shock with CRF” (Regents of the University of California, priority 1992, dated 1994).
No end group written: not given here.

How the values were obtained:
[1] = system: rat abdominal muscle after celiotomy (vascular leakage); experiment: Vascular leakage after celiotomy (4 cm midline incision through abdominal muscle wall), Monastral blue; format: in vivo; conditions: for Area / Intensity / Lesion Size: tissues 0.5 hr after surgery
Protocol: Experiments were conducted on male Sprague-Dawley rats 243±15 gm (S. D., Simonsen Labs., Gilroy, Calif.) anesthetized with sodium pentobarbital, 60 mg/kg i.p. Monastral blue, 60 mg/kg i.v., was injected 0.2 ml/100 g, 3 min. before a 4 cm midline incision through the abdominal muscle wall (celiotomy). Saline or CRF was administered to randomizd pairs with N=8 rats per group. The size of the lesion, measured as area in mm^2, an its light intensity, were quantified using the JAVA image-analysis software program. The light intensity, given in arbitrary units, was internally calibrated using Monastral blue solutions (1-30 mg/ml) placed on white filter paper. Values are mean ±S. E. M. FIG. 2 illustrates the respective amount of vascular permeability for one pair of rats (control and treated). Tables III and IV set out data from these experiments.
CRF: injected at various doses subcutaneously 30 min
before a 4 cm midline incision, tissues taken 0.5 hr
CRF: 30 μg/kg s.c. injected 2 hr before a 4 cm midline
incision, tissues taken 0.5 hr after surgery

PAF-acether = experiment: Vascular leakage produced by PAF-acether injected subcutaneously into the abdomen; format: in vivo, rat; conditions: CRF 30 μg/kg s.c. 30 min before PAF-acether
Protocol: (§1) CRF: 30 μg/kg s.c. injected 30 min before subcutaneous
(§2) injection of PAF-acether (1 μg/0.1 ml/rat) into the
(§3) abdomen; muscle removed 0.5 hr later.

[2] = as above; format: in vivo, rat; conditions: CRF 30 μg/kg s.c. 30 min before PAF-acether 1 μg/0.1 ml/rat s.c.; muscle removed 0.5 hr later
Protocol: as §1, §2, §3

[3] = system: rat brain after cold injury (brain edema); experiment: Freeze injury to cerebral cortex, water and sodium content as index of brain edema; format: in vivo; conditions: CRF 30 μg/kg s.c. 2×, tissues 3 hr after cold injury, ± S.E.M., N = 5
Protocol: In a second set of experiments, the brain surface, namely the cerebral cortex, was injured by freezing and the water and sodium content were measured in the cerebral cortex and in the basal ganglia, a part of the brain away from the freeze zone. The water and sodium content of the brain tissue served as an index of brain edema. After freeze injury, the water and sodium content of the cerebral cortex were evaluated relative to non-frozen tissues. CRF administered in two separate doses of 30 μg/kg subcutaneously, one dose 15 min. before the injury and the second dose 90 min. after the first dose, inhibited the two indices of brain edema.
Male SpragueDawley rats, 300-325 g, anesthetized with
ketamineacepromazine, were injected saline or CRF (30 μg/kg s.c.
2×) and injury to cerebral cortex was produced by applying a cold
probe to the skull for 1 min. Brain tissues were obtained 3 hr later and
analyzed for water and sodium content.

[4] = system: rat brain after cold injury (vascular permeability); experiment: Freeze (cold) injury to brain, Monastral blue vascular leakage; format: in vivo
Description: An in vivo model of injury to study brain edema has been developed as a reproducible edema model, which has the features of immediate cortical damage followed by the subsequent development of brain edema. This model is described by Chan et al., Brain Research 277, pp. 329-337 (1983). The model uses rats which are anesthetized. A 2.5 cm incision is made over the sagittal suture and the bone of the right hemisphere exposed. A 60 mm^2 plate attached to a brass cup filled with dry ice-acetone mixture, with a temperature of -50° C., is applied to the rat skull for one minute. The animals are sacrificed at various intervals after the onset of cold-injury. A dye is administered intravenously before the freezing. Cortical slices are then obtained of the brain.
16 male rats were randomly divided into eight pairs and one rat in each pair received either saline or CRF (subcutaneously twice at 30 μg/kg, 30 min and 10 min before cold injury). The animals were anesthetized with sodium pentobarbital, 60 mg/kg intraperitoneally, and injected with Monastral blue, 60 mg/kg intravenously. A cold probe was applied onto the skull for […] and the brains taken out 1 hour after cold injury. The staining of brain tissues with Monastral blue, a colloidal pigment that gets trapped between the albuminal surface of the endothelial cell and the basement membrane, was proportional to the degree of vascular leakage. The results from the first pair are shown as FIG. 1.
The size of the lesion, measured as area in mm^2, and the degree of staining intensity, were quantified using an image-analysis software program called JAVA (Jandel Corporation, San Rafeal, Calif.). The stain intensity, given in arbitrary units, was internally calibrated using Monastral blue solutions (1-30 mg/ml) placed on white filter paper. Values are mean ±S. E. M.

rat pawskin = conditions: mediators injected into the rat pawskin; previously shown; cited from earlier work
blood pressure = conditions: prior art report; cited from earlier work
ACTH = conditions: prior art report; cited from earlier work
[5] = CRF 15 μg/kg s.c. 30 min before incision
[6] = CRF 30 μg/kg s.c. 30 min before incision
[7] = CRF 30 μg/kg s.c. 2 hr before incision
[8] = CRF 60 μg/kg s.c. 30 min before incision

With “Corticotropin-Releasing Factor (SEEPPISLDLTFHLLREVLEMARAEQLAQQAHSNRKLMEII; not fully specified; ends and bridges not checked; UniProt P06850 154-194, looked up) [CRF]” the “lesion size relative to that of the saline-treated group” value [1, 5] was 63%, the Area [1, 5] was 505 ± 16 mm^2 and the Intensity [1, 5] was 2.0 ± 0.03 arbitrary units. The “Lesion Size” value [1, 5] was 1031 ± 44, the “lesion size relative to that of the saline-treated group” value [1, 6] was 42% and the Area [1, 6] was 361 ± 18 mm^2. The Intensity [1, 6] was 1.9 ± 0.05 arbitrary units, the “Lesion Size” value [1, 6] was 676 ± 47 and the “lesion size relative to that of the saline-treated group” value [1, 7] was 59%. For the same substance, the Area [1, 7] was 477 ± 31 mm^2, the Intensity [1, 7] was 1.9 ± 0.03 arbitrary units and the “Lesion Size” value [1, 7] was 919 ± 51. For the same substance, the “lesion size relative to that of the saline-treated group” value [1, 8] was 29%, the Area [1, 8] was 257 ± 3 mm^2 and the Intensity [1, 8] was 1.8 ± 0.05 arbitrary units. The “Lesion Size” value [1, 8] was 468 ± 19, the “muscle lesion size relative to that of the saline-treated control group” value (PAF-acether) was 44% and the Intensity [2] was 1.4 ± 0.05. The “SODIUM, cerebral cortex” value ([3]; injured cerebral cortex) was 271 ± 8 mEg/kg dry wt, the “WATER CONTENT, cerebral cortex” value ([3]; injured cerebral cortex) was 77 ± 4% and the “SODIUM, basal ganglia” value ([3]; non-injured basal ganglia) was 215 ± 9 mEg/kg dry wt. For the same substance, the “WATER CONTENT, basal ganglia” value ([3]; non-injured basal ganglia) was 76 ± 1%, the “blinded observer's correct assignment of brains to saline or CRF group” value ([4]; eight pairs of rats, more damaged vs less damaged brain) was 8 out of 8 and the “lesion size relative to that of the saline-treated group” value ([4]; rat, CRF 30 μg/kg s.c. twice before cold injury) was 44%. The “Intensity (stain intensity)” value ([4]; rat, CRF 30 μg/kg s.c. twice, 30 min and 10 min before cold injury, brains taken 1 hour after injury, mean ± S.E.M.) was 2.0 ± 0.05 arbitrary units and the “effect on edema-producing properties of inflammatory mediators (serotonin, substance P, bradykinin, neurotensin, histamine)” value (rat pawskin) was “antagonize the edema-producing properties of these mediators”.

For “oCRF: ovine (sheep) CRF, synthetic, disclosed in U.S. Pat. No. 4,415,558 (SQEPPISLDLTFHLLREVLEMTKADQLAQQAHSNRKLLDIA; not fully specified; ends and bridges not checked; UniProt P01142 148-188, looked up)”, the “effect on blood pressure” value (blood pressure) is given as “lower blood pressure”.

In the case of “sauvagine (QGPPISIDLSLELLRKMIEIEKQEKEKQQAANNRLLLDTI; not fully specified; ends and bridges not checked; UniProt P01144 1-40, looked up) [40 amino acid peptide generally similar to CRF]”, the “effect on ACTH secretion” value (ACTH) is listed as “stimulating the secretion of ACTH and -endorphin” and the “effect on blood pressure” value (blood pressure) is listed as “lowering blood pressure in mammals”.
